Earlier results in US10874669B2 (WAYNE STATE UNIVERSITY, priority 2018, dated 2020).

Experiments:
α-syn = α-syn (Homo sapiens (Human), UniProt P37840); details: previously shown; cited from earlier work
PC12 cells = details: previously shown; cited from earlier work

## CCCN[C@H]1CCc2nc(N)sc2C1 [Pramipexole]
α-syn
  decreasing ThT fluorescence, compared to hybrid agonist: far less effective
PC12 cells
  reducing toxicities of α-syn aggregates, compared to hybrid agonist: far less effective
